According to publication PMC13327620, “A Deep‐Red‐Absorbing Osmium(II) Complex as a Photosensitizer for Photodynamic Therapy Inducing Immunogenic Cell Death” (Angewandte Chemie (International Ed. in English), 2026):
pIC50: −log10 of the molar value.

Experiments:
CT26 cells = test: ICD in vitro, summary of the three hallmarks; assay type: cell-based, mouse
Method: A weak ICD was present in cells treated with 6.12 µM Os2 in the dark (limited translocation of CRT) and Ce6‐treated cells under 770 nm light (partial release of HMGB‐1).

[1] = system: human fibroblast cells (MRC-5); test: Resazurin cell viability assay, dark toxicity; assay type: cell-based; details: MRC5, MRC-5, dark
Method: (§1) (100 U ml−1), streptomycin (100 U ml−1), and 1% L-glutamine. The murine fibrosarcom a (MCA205) cells were cultured in RPMI 1640 medium with 10% fetal bovine serum (FBS), penicillin (100 U ml−1), streptomycin (100 U ml−1), and 1% L-glutamine. All cells were incubated at 37 °C in a humidified atmosphere with 5 % CO2.
(§2) Normoxia. The in vitro viability of cells exposed to the complexes was determined using a resazurin assay. C ells were seeded in 96-well plates at densities of 4,000 cells/well for CT26, MC A205 and U-87 MG cells, and 8,000 cells/well for MRC-5 and NIH/3T3 cells. A fter 24 h of growth at 37 °C wit h 5% CO2, the medium was replaced with fresh medium containing various concentrations of the compounds . Following a 4- h incubation in the dark, the medium was refres hed , and the plates were exposed to irradiation usinga LUM OS -BIO photoreactor (At las Photonics).N on- ir rad iated plates were similarly refr eshed with medium and kept in the dark for the same duration. After a 40- h r ecov ery period, a f reshly pr epar ed resazurin solution (0.2 mg/mL) was added to each well, and the plates were left in the dark for 4 h before analysis on a B i o Te k Cytation 5 Cell Imaging Multimode Reader (Agil ent Technologies).
(§3) Hypoxia.Hypoxia cells were from well -grown normoxia cells and cultured for at least two weeks before use. […]

[2] = system: mouse fibroblast cells (NIH/3T3); test: Resazurin cell viability assay, dark toxicity; assay type: cell-based; details: NIH3T3, NIH/3T3, dark
Method: as §1, §2, §3

CT26‐luc cells = test: Annexin V-FITC/propidium iodide (AV/PI) cell viability assay by flow cytometry; assay type: cell-based, mouse; details: 740 nm LED light (60 min, 12.6 J cm^−2)
Method: Following the gold standard assessment method, the Annexin V‐FITC/propidium iodide (AV/PI) dual staining assay was conducted to screen the suitable concentrations of each drug (Figure S25). In addition, to better monitor tumor growth in vivo, luciferase‐labelled tumor cells (CT26‐luc) were used for in vivo experiments by bioluminescence imaging. […] As the concentration of each drug was increased, the proportion of live cells decreased, while the percentage of dying cells (Q3, Annexin V^+/PI^−) and dead cells (Q2, Annexin V^+/PI^+ and Q1, Annexin V^−/PI^+) increased. The concentrations at which approximately 5% of the cells remained alive (IC95) were 600 µM for Cisplatin in the dark, 1.8 µM for Os2, and 6.5 µM for Ce6 upon 740 nm LED light irradiation (60 min, 12.6 J cm^−2). These concentrations were selected for the subsequent in vivo vaccination studies. […]
incubated for 24 h. Cells were then treat ed with the determined IC50 of complexes and irradiated or kept in the dark. Supernatants were collected 12 h post-t reatm ent, and the extracellular ATP content was measured with Adenosine 5′ -triphosphate (ATP) Bioluminescent Assay Kit (Sigma-Aldrich) according tomanufacturer ’s ins truction. […]
556419) and PI (BD Biosciences, Catalog no.51- 66211E). CT26- luc cells were analyzed by flow cytometry (Beckm an Coulter Life Sciences, CytoFLEX LX Flow Cytometer). […]

In the case of `C=Cc1c(C)c2cc3nc(c(CC(=O)O)c4[nH]c(cc5nc(cc1[nH]2)C(C)=C5CC)c(C)c4C(=O)O)[C@@H](CCC(=O)O)[C@@H]3C` [Ce6, chlorin e6], the “ICD (all three hallmarks)” value (CT26 cells; CT26, 770 nm light) was “weak ICD”, the “ICD (all three hallmarks)” value (CT26 cells; CT26, illumination at 740 nm) was “strong ICD” and the pIC50 [1] was under 4.00. The pIC50 [2] was under 4.00 and the “Concentration at which approximately 5% of the cells remained alive (IC95)” value (CT26‐luc cells) was 6.5 µM.
